How the values were obtained:
[1] = target: T1, Glucocorticoid receptor (Homo sapiens, UniProt P04150); experiment: Transactivation activity at glucocorticoid receptor in human HeLa cells assessed as induction of MMTV promoter activity by luciferase reporter gene assay; type: cell-based
T1 sequence (P04150 whole entry): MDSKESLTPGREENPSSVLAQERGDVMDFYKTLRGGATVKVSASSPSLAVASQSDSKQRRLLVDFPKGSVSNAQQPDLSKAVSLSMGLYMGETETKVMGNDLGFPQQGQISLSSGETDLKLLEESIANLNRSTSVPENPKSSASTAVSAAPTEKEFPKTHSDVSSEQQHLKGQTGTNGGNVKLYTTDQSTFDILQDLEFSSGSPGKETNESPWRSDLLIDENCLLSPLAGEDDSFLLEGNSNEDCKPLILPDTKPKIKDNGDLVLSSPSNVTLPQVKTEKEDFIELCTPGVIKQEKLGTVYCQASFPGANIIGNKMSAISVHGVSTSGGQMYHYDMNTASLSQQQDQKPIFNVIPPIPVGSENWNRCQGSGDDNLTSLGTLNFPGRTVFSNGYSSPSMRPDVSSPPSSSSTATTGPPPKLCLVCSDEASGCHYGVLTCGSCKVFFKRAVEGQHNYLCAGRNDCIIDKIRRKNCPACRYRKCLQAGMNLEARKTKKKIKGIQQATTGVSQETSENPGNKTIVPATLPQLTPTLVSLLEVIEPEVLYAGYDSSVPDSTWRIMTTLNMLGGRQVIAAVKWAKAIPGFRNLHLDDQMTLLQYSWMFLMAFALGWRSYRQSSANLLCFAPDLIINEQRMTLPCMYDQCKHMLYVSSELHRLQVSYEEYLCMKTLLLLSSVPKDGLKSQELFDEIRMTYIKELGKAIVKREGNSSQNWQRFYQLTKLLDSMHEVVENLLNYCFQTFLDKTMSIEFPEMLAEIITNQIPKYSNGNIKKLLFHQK

[2] = Stability in human liver microsomes assessed as drug recovery after 30 mins; type: ADME, microsome; settings: read-out: Drug recovery
[3] = target: T2, Progesterone receptor (Homo sapiens, UniProt P06401); experiment: Binding affinity to recombinant human progesterone receptor expressed in baculovirus infected sf9 cells
T2 sequence (P06401 whole entry): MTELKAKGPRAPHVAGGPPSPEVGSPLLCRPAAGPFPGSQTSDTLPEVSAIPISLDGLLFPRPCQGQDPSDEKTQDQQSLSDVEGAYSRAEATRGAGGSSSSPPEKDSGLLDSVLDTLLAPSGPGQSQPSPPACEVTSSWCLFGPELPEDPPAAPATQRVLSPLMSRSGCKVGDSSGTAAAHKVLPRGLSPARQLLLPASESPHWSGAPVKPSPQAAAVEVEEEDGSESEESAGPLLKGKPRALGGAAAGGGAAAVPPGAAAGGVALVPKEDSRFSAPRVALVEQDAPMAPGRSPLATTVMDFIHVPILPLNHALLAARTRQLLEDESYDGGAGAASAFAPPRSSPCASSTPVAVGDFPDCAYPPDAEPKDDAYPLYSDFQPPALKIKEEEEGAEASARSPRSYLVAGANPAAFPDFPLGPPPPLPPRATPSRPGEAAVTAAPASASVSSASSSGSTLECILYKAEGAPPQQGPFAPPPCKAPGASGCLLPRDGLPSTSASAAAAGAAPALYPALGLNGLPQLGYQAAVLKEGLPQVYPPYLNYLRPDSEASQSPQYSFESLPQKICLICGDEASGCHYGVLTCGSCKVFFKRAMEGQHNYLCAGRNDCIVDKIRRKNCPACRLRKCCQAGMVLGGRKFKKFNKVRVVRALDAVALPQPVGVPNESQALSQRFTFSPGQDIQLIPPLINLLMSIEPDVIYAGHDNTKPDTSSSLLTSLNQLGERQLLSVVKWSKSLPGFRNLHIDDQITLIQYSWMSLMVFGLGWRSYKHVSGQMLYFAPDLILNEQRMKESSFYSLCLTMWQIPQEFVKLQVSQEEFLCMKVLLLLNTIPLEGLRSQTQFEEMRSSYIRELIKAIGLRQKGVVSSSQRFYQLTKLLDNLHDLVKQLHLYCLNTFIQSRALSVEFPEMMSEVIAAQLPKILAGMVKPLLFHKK

[4] = target: T3, Mineralocorticoid receptor (Homo sapiens, UniProt P08235); experiment: Binding affinity to recombinant human mineralocorticoid receptor expressed in baculovirus infected sf9 cells
T3 sequence (P08235 whole entry): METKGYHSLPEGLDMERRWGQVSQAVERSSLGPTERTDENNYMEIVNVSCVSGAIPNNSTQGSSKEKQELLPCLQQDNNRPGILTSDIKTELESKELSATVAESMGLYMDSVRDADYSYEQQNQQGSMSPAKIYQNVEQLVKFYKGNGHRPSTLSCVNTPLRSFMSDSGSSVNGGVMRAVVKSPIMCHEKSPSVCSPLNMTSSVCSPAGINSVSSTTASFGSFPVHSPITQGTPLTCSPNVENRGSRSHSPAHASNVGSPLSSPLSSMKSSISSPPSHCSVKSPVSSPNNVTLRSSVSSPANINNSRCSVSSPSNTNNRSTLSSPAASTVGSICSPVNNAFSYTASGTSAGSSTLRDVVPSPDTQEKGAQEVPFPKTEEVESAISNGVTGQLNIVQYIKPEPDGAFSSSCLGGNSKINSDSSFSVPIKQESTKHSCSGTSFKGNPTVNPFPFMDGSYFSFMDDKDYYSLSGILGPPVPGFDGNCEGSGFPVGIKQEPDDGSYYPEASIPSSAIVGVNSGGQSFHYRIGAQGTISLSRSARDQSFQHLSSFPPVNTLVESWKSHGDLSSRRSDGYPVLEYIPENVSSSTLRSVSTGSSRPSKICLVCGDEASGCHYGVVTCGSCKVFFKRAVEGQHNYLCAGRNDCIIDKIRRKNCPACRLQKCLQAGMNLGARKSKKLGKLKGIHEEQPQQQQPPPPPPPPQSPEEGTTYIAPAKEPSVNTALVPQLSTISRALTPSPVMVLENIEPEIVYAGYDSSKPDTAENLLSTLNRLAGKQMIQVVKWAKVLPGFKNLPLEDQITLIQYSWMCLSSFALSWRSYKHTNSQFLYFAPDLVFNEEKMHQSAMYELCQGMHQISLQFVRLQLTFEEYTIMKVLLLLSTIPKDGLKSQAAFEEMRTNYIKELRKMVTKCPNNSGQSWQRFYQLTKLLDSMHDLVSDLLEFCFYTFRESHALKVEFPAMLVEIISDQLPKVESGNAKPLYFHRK

[5] = target: T4, Androgen receptor (Homo sapiens, UniProt P10275); experiment: Binding affinity to recombinant human androgen receptor expressed in baculovirus infected sf9 cells
T4 sequence (P10275 whole entry): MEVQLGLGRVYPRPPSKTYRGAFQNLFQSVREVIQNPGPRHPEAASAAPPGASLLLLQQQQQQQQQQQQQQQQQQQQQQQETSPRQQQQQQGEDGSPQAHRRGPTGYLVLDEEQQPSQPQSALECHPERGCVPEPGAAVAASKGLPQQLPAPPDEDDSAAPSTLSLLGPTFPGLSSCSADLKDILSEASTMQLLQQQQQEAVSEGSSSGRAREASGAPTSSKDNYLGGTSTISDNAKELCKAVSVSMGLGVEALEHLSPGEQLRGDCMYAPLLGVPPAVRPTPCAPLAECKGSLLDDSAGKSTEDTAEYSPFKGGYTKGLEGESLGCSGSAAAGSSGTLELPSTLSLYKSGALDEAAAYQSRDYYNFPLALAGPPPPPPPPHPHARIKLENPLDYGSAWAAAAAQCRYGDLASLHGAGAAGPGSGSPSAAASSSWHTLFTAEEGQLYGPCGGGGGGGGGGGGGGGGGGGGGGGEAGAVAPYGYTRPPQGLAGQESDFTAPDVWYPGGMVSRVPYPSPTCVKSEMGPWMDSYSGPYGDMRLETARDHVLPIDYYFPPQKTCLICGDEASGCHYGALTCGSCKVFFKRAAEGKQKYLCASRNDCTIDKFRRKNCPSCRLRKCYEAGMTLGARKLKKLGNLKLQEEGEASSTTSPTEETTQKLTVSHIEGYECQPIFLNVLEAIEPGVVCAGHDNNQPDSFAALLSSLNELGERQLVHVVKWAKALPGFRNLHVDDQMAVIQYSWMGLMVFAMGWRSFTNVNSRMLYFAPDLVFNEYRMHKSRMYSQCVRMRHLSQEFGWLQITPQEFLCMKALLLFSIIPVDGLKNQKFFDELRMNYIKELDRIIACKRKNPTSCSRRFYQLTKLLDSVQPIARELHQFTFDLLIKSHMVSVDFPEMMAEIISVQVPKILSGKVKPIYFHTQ

[6] = target: T1, Glucocorticoid receptor; experiment: Transrepression activity at glucocorticoid receptorin human HeLa cells assessed as inhibition of TPA-induced collagenase promoter activity by luciferase reporter gene assay; type: cell-based
[7] = target: T1, Glucocorticoid receptor; experiment: Transrepression activity at glucocorticoid receptor in human THP1 cells assessed as receptor-mediated anti-inflammatory activity by measuring inhibition of LPS-induced IL-8 production; type: cell-based
[8] = target: T1, Glucocorticoid receptor; experiment: Binding affinity to recombinant human glucocorticoid receptor expressed in baculovirus infected sf9 cells

`Cc1ccc2c(NCC(O)(CC(C)(C)c3cc(F)ccc3O)C(F)(F)F)cccc2n1` (stereo unspecified) gave a pEC50 [1] of 7.9 and a remaining at 0.5 h [2] of 31%.

Work on `CCSC[C@@](O)([C@@H](Nc1cccc2nc(C)ccc12)c1ccc(OC)c(F)c1Cl)C(F)(F)F` yielded an IC50 [3] of 794 nM, an IC50 [4] greater than 1000 nM and an IC50 [5] greater than 1000 nM.

With `CC[C@@H]1C[C@](O)(C(F)(F)F)[C@@H](Nc2cccc3[nH]c(=O)ccc23)c2cc(F)c(F)c(O)c21` the IC50 [3] was greater than 1000 nM, the IC50 [4] was greater than 1000 nM and the IC50 [5] was greater than 1000 nM.

Work on `Cc1ncc2c(N[C@H]3c4ccc(F)c(O)c4C(C)(C)C[C@]3(O)C(F)(F)F)cc(F)cc2n1` yielded an IC50 [6] of 39.8 nM, a pEC50 [1] of 6.8 and an IC50 [7] of 39.8 nM. For the same compound, the IC50 [8] was 126 nM, the IC50 [3] was greater than 1000 nM and the IC50 [4] was greater than 1000 nM. It also gave an IC50 [5] greater than 1000 nM.

In the case of `CC[C@@H]1C[C@](O)(C(F)(F)F)[C@@H](Nc2cccc3nc(C)ccc23)c2ccc(F)c(O)c21`, the IC50 [6] is reported as 5.01 nM, the pEC50 [1] is reported as 7.9 and the IC50 [7] is reported as 5.01 nM. The IC50 [8] was 12.6 nM, the IC50 [3] was 794 nM and the IC50 [4] was greater than 1000 nM. The IC50 [5] was greater than 1000 nM and the remaining at 0.5 h [2] was 86%.

Compound `CC(C)(CC(O)(CNc1cccc2c(=O)[nH]ccc12)C(F)(F)F)c1cccc(F)c1O` (stereo unspecified) has an IC50 [6] of 3.98 nM, a pEC50 [1] of 7.6 and an IC50 [7] of 3.98 nM. For the same compound, the IC50 [8] was 2.51 nM, the IC50 [3] was 200 nM and the IC50 [4] was greater than 1000 nM. It also gave an IC50 [5] greater than 1000 nM and a remaining at 0.5 h [2] of 13%.

Reference: ChEMBL document CHEMBL4041544, “Discovery of new selective glucocorticoid receptor agonist leads” (Bioorg Med Chem Lett, 2017)
